Source: patent US20050004044A1, “Use of orsaponin [3beta, 16beta, 17 alpha-trihydroxycholost-5-en-22-one 16-0-(2-0-4-methoxybenzoyl-beta-D-xylopyranosyl)-(1->3)-(2-0-acetyl-alpha-L-arabinopyranoside)] or OSW-1 and its derivatives for cancer therapeutics” (priority 2003, published 2005)

Tested on: HL-60 cells
Assay: MTT cell growth inhibition, HL-60
Format: cell-based
Settings: Homo sapiens, HL-60, 72 hours
Procedure: FIG. 2. Effect of Orsaponin (OSW-1) on cell growth in two human cancer cell lines including a leukemia and a lymphoma cell line. HL-60 (leukemia) and Raji cells (lymphoma) in exponentially growing phase were treated with the indicated concentrations of OSW-1 for 72 hours. Cell growth inhibition was measured by MTT assay.
Cells and Cell Lines. Various cancer cell lines were used including the human leukemia cell lines HL-60 and ML-1 cells; human lymphoma cell line Raji; human pancreatic cancer cells AsPC-1; and human ovarian cancer cells SKOV3; human colon cancer cells HCT116; as well as isolated CLL cells from patients; and lymphocytes from normal donors. Cells were grown and maintained as per protocols known in the art using appropriate cell culture media and supplements.
1. MTT Assays. For these assays either cancer cell lines were used. Alternatively, mononuclear cells from peripheral blood samples of CLL patients or normal donors were separated by Ficoll Hipaque fractionation and resuspended in DMEM complete medium. […] After the indicated number of days (usually 3 days or 72 hours) of exposure to OSW-1, cell survival was assessed by the addition of the MTT dye to the wells. […] Survival of cells under orsaponin treatment was evaluated as a percentage of control cell growth. […]

COc1ccc(C(=O)OC2C(OC3C(O)COC(O[C@H]4C[C@H]5[C@@H]6CC=C7C[C@@H](O)CC[C@]7(C)[C@H]6CC[C@]5(C)[C@@]4(O)[C@H](C)C(=O)CCC(C)C)C3OC(C)=O)OCC(O)C2O)cc1 (stereo partly drawn) [OSW-1, 3β, 16β, 17 α-trihydroxycholost-5-en-22-one 16-O-(2-O-4-methoxybenzoyl-β-D-xylopyranosyl)-(1->3)-(2-O-acetyl-α-L-arabinopyranoside)]
IC50: < 0.5 nM
